Like-named read-outs stand apart in the source and are kept apart here.
Assays:
[1] = tested on: P. falciparum male gametocytes; test: PhIDDLI screening assay, 24 h preincubation at 10xIC50, tubulin/DAPI imaging of male gametogenesis; type: cell-based, Plasmodium falciparum NF54; details: approximately 10xIC50, fixed 20 min post-induction
Description: Mature gametocytes were treated for 24h with approximately 10xIC50 of test compounds or DMSO as a solvent control. Male gametogenesis was then induced by lowering the temperature from 37°C to ~20°C and adding xanthurenic acid. 20min later, when male gametogenesis (exflagellation) could be expected to peak, all samples were fixed. A sample of non-induced DMSO-treated gametocytes was fixed with 4% paraformaldehyde to provide an unactivated gametocyte control for comparison. The cells were then processed for immunofluorescence using an antibody against alpha-tubulin II and DNA staining with 4′,6-diamidino-2-phenylindole (DAPI) and visualised by fluorescence microscopy. Tubulin-bright cells from each treated sample were imaged and captured at random.
Cells were identified using a semi-automated pipeline established in the ICY BioImageAnalysis (https://icy.bioimageanalysis.org/) protocols module. Images and accompanying bounding boxes representing the outlines of identified cells were then passed to the PhIDDLI pipeline. PhIDDLI consists of several open source image processing and AI/ML modules connected for seamless processing, clustering and visualisation of cellular phenotypes (Fig 3A). […] To focus on the overall cellular phenotype rather than potentially confounding variable immunostaining intensities between experimental replicates, cells were transformed so that the range of staining intensities for each channel were normalised to fall between a 0–255 pixel intensity value. Then, using the Albumentations module (https://albumentations.ai/) to augment the dataset and control for cells in different orientations, each extracted cell image was rotated 90, 180 and 270 degrees and mirrored so that each cell was represented eight different times in the dataset. The augmented images were then passed to the EffcientNet-B1 module (https://github.com/tensorflow/tpu/tree/master/models/official/efficientnet) (a pretrained neural network developed for image processing) which extracted 1,000 distinct numerical features from each individual cell image. The EfficientNet-B1 was selected from amongst the other EfficientNet models due to its input image size (240 pixels) best matching the size of the individual cell images in the dataset, therefore ensuring maximal input data whilst allowing acceptable computation time on a desktop computer. […]
Mature gametocyte cultures were divided into 100 μl “microcultures” in pre-warmed 1.5 ml tubes also containing 100 μl complete culture medium with test compounds at a final concentration of 10xIC50 or 0.5% DMSO as a solvent control. Tubes were gassed and incubated at 37°C for 24 h. The entire compound library was screened once, spread over four different experiments, each with two DMSO control tubes. An 8% formaldehyde solution was prepared by diluting 16% methanol-free formaldehyde in an equal volume of phosphate-buffered saline (PBS). In each experiment, one DMSO control tube was fixed with equal volume of 8% formaldehyde (4% final concentration) at 37°C to provide an “unactivated” gametocyte control. Gametogenesis was then triggered in the remaining DMSO control tube and all compound tubes by adding 10 μl ookinete medium, and they were immediately incubated at room temperature. After 20 min (when exflagellation is maximal), all remaining tubes were fixed for 30 min.
100 μl of the fixed cell suspensions were added to wells of a 24 well plate containing 1ml PBS and a poly-l-lysine-coated glass coverslip.

[2] = tested on: P. falciparum male gametocytes; test: P. falciparum Dual Gamete Formation Assay (PfDGFA), male readout (exflagellation); type: cell-based, Plasmodium falciparum NF54; details: for IC50: this study, read-out: Pf DGFA IC50 MALE
Outline: (§1)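 Day-14 NF54 gametocytes were incubated with compound for 24 h at 37°C under 1% O2/3% CO2/96% N2. Gametogenesis was triggered with ookinete medium (0.1 μM xanthurenic acid) plus Cy3-anti-Pfs25, and exflagellation was imaged by brightfield after cooling to 4°C then 28°C. Females were imaged by Pfs25 fluorescence 24 h later at 28°C.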

[3] = tested on: P. falciparum female gametocytes; test: P. falciparum Dual Gamete Formation Assay (PfDGFA), female readout (Pfs25-positive female gametes); type: cell-based, Plasmodium falciparum NF54; details: for IC50: this study, read-out: Pf DGFA IC50 FEM
Outline: as §1

[4] = tested on: P. falciparum gametocytes; test: P. falciparum Gametocyte Viability ATP Assay (PfGCT); type: cell-based, Plasmodium falciparum; details: Mean TOX HepG2 over GC-ATP IC50; GREEN = >10-fold; RED = <10-fold
Source text: Fig 1 The activity of TCAMS compound identified in the Pf DGFA screen. (A) 85 molecules were confirmed active in the Pf DGFA. 58 were previously identified in one or more transmission-blocking screens. […] No molecule was identified with >4.7-fold greater activity against female gametocytes. Abbreviations (IC50 = concentration giving 50% inhibition, PbODA = P. berghei Ookinete Development Assay, PfDGFA = P. falciparum Dual Gamete Formation Assay, PfFGAA = P. falciparum Female Gametocyte Activation Assay, PfGCT = P. falciparum Gametocyte Viability ATP Assay).

HepG2 cells [5] = details: cited from earlier work
[6] = tested on: P. falciparum gametocytes; design: method as in Almela et al 2015; details: ref Almela et al 2015; read-out: Pf Gametocyte viability (ATP) GC-ATP IC50; cited from earlier work
HepG2 cells [7] = test: HepG2 cytotoxicity counter-screen; details: mean of the HepG2 TOX50 values
[8] = tested on: P. falciparum male gametocytes; test: PhIDDLI timecourse assay, compound added at timepoints after triggering male gametogenesis; type: cell-based, Plasmodium falciparum NF54; details: for impact on exflagellation: compound added concurrent with triggering gametogenesis or at any other point
Description: To gain greater understanding of their activity, selected molecules displaying different inhibition phenotypes in the initial screen were re-tested. Rather than subjecting gametocytes to a 24h preincubation prior to inducing gametogenesis, compounds were added at varying timepoints after triggering male gametogenesis. Samples were then fixed 20 min post-induction, imaged and analysed similarly using the PhIDDLI pipeline.
Alternatively, if compound action over time was to be assessed, 1.5ml tubes with appropriate dilutions of test compounds were prepared for each timepoint. Gametogenesis was then triggered in the mature gametocyte culture with ookinete medium and temperature decrease from 37°C. At appropriate times, 200 μl of triggered culture was sampled and mixed with test compound. All samples were then allowed to continue gametogenesis and fixed as described previously with paraformaldehyde after 20 min (when a DMSO-treated sample could be expected to be exflagellating).
100 μl of the fixed cell suspensions were added to wells of a 24 well plate containing 1ml PBS and a poly-l-lysine-coated glass coverslip. Cells were allowed to settle and adhere to the coverslip overnight at 4°C before coverslips were transferred to a hydrophobic membrane (Parafilm) for immunofluorescence staining in a humidified, dark box. Cells were permeabilised with 0.1% Triton-X100 in PBS for 10 min before washing in PBS three times. Non-specific binding was blocked by incubating coverslips with PBS + 10% fetal bovine serum (FBS) (blocking buffer) for 1 h. Gametocytes and microgametes were visualised by labelling with an anti-alpha tubulin antibody (raised from chicken embryo brain tubulin but cross-reacts with many other species) (clone DM1A (Sigma)) 1:500 dilution in blocking buffer for 1 h, washed as before, and then stained with an anti-mouse Alexa488 secondary antibody (Thermo-Fisher) 1:1,000 dilution in blocking buffer for a further 1 h. After a final series of washes, the coverslips were mounted on glass slides with VectaShield mountant (Vector Laboratories) containing 4′,6-diamidino-2-phenylindole (DAPI) to visualise cellular DNA.
All slides were imaged using a Nikon Ti fluorescence microscope using an x100 oil objective and 1.5x zoom. For each sample, tubulin-postive, DAPI-positive stained gametocytes/gametes were imaged at random. Z-stack images with 0.3μm slices were captured for each field of view and images deconvolved and transformed by maximum intensity projection within the Nikon NIS Elements software. Within raw images, cells were initially identified by an automated analysis pipeline developed in ICY Bioimage Analysis based upon the intensity of the tubulin staining captured which assigns a region of interest (ROI) around each cell. All ROIs were reviewed by a trained operator and adjusted if necessary to reflect the true outline of the cell (for example if two cells touching had been allocated the same ROI). Raw images contained between 1 and 8 extractable cells.
Code for the PhIDDLI pipeline was written in Python 3.8 and executed by command line within a 64-bit Ubuntu virtual machine running within Oracle VM VirtualBox 6.1. […] Principle component analysis of compound phenotypes (Fig 5) was performed using ClustViz (https://biit.cs.ut.ee/clustvis/) using ln(x+1) transformation, and k-means clustering of the resultant PCA data was coded in R and executed in R Studio version 1.1.456 to identify optimum cluster using the elbow method.

[9] = tested on: P. falciparum female gametocytes; test: P. falciparum Female Gametocyte Activation Assay (PfFGAA); type: cell-based, Plasmodium falciparum; details: Mean TOX HepG2 over FGAA IC50; GREEN = >10-fold; RED = <10-fold
[10] = tested on: P. falciparum female gametocytes; design: method as in Miguel-Blanco et al 2017; details: ref Miguel-Blanco et al 2017; read-out: Pf female gametogenesis FGAA IC50; cited from earlier work
[11] = tested on: P. berghei ookinete development; test: P. berghei Ookinete Development Assay (PbODA); type: cell-based, Plasmodium berghei; details: Mean TOX HepG2 over Pb ODA value; GREEN = >10-fold; RED = <10-fold

## O=S(=O)(NCC1(O)CCOc2ccccc21)c1ccc(Br)s1 (stereo not drawn) [DDD01035881, reference compound]
[1]
  Cellular phenotype of male gametocytes: arrested male gametogenesis late

## COc1ccc2nc3cc(Cl)ccc3c(NCCCCNc3c4ccc(Cl)cc4nc4ccc(OC)cc34)c2c1 [TC02]
[2]
  Cytotox ratio Pf Male: 22.1
  IC50: 380 nM
[3]
  Cytotox ratio Pf Female: 22.1
  IC50: 380 nM
[4]
  Cytotox ratio Pf GC-ATP: 42.0
HepG2 cells [5]
  GC-ATP TOX50 HepG2: 14.47 µM
[6]
  IC50: 200 nM
HepG2 cells [7]
  Mean TOX: 8.39 µM
[8]
  impact on exflagellation: little-to-no impact

## CC(C)(C)c1ccc(-c2nc3c(ccc4nc(N)nc(N)c43)[nH]2)cc1.Cl [TC05]
[2]
  Cytotox ratio Pf Male: 17.1
  IC50: 180 nM
[3]
  Cytotox ratio Pf Female: 3.2
  IC50: 970 nM
[9]
  Cytotox ratio Pf FGAA: 11.8
[4]
  Cytotox ratio Pf GC-ATP: 14.6
HepG2 cells [5]
  FGAA TOX50 HepG2: 2.12 µM
  GC-ATP TOX50 HepG2: 3.85 µM
[6]
  IC50: 210 nM
HepG2 cells [7]
  Mean TOX: 3.07 µM
[8]
  impact on exflagellation: little-to-no impact
[10]
  IC50: 260 nM

## O=C(c1ccc([N+](=O)[O-])o1)N1CCC(Cc2ccc(C(F)(F)F)cc2)CC1 [TC15]
[2]
  Cytotox ratio Pf Male: 58.0
  IC50: 400 nM
[3]
  Cytotox ratio Pf Female: 52.7
  IC50: 440 nM
[9]
  Cytotox ratio Pf FGAA: 145.0
[4]
  Cytotox ratio Pf GC-ATP: 89.2
HepG2 cells [5]
  FGAA TOX50 HepG2: 27.05 µM
  GC-ATP TOX50 HepG2: 14.11 µM
[6]
  IC50: 260 nM
HepG2 cells [7]
  Mean TOX: 23.20 µM
[10]
  IC50: 160 nM
[1]
  Cellular phenotype of male gametocytes: retain their falciform shape but have a condensed mass of unreplicated DNA and several thin microtubule structures

## CCN(CC)CCN(Cc1ccc(-c2ccc(C(F)(F)F)cc2)cc1)C(=O)Cn1cc(Cc2cnn(C)c2)c(=O)nc1/C=C/c1cccc(F)c1F.O=C(O)C(O)C(O)C(=O)O [TC18]
[2]
  Cytotox ratio Pf Male: 19.6
  IC50: 630 nM
[3]
  Cytotox ratio Pf Female: 3.0
  IC50: 4100 nM
[9]
  Cytotox ratio Pf FGAA: 14.2
[4]
  Cytotox ratio Pf GC-ATP: 72.7
HepG2 cells [5]
  FGAA TOX50 HepG2: 9.69 µM
  GC-ATP TOX50 HepG2: 14.4 µM
[6]
  IC50: 170 nM
HepG2 cells [7]
  Mean TOX: 12.35 µM
[10]
  IC50: 870 nM
[1]
  Cellular phenotype of male gametocytes: retain their falciform shape but have a condensed mass of unreplicated DNA and several thin microtubule structures

## Fc1ccc2[nH]c(-c3ccc(-c4ccc(CNCCN5CCNCC5)cc4)s3)nc2c1.O=C(O)C(F)(F)F [TC23]
[2]
  Cytotox ratio Pf Male: 12.4
  IC50: 1970 nM
[3]
  Cytotox ratio Pf Female: 3.4
  IC50: 7180 nM
[4]
  Cytotox ratio Pf GC-ATP: 46.3
HepG2 cells [5]
  GC-ATP TOX50 HepG2: 25 µM
[6]
  IC50: 530 nM
HepG2 cells [7]
  Mean TOX: 24.53 µM
[8]; compound added concurrent with triggering gametogenesis, DMSO control 43.7%
  cells exflagellating: 19.8%

## COc1cc(-c2nc(C(C)(C)CN)[nH]c2-c2ccncc2)ccc1Br.Cl [TC27]
[2]
  Cytotox ratio Pf Male: 23.6
  IC50: 1770 nM
[3]
  Cytotox ratio Pf Female: 25.9
  IC50: 1610 nM
HepG2 cells [5]; HepG2 value reported with the ODA screen, ref Delves et al 2019
  ODA TOX50 HepG2: 39.811 µM
[11]
  Cytotox ratio Pb Ookinete: 31592.6
HepG2 cells [7]
  Mean TOX: 41.74 µM
[1]
  Cellular phenotype of male gametocytes: unactivated phenotype consistent with total arrest of gametogenesis
